Details: polymer system of polydimethylsiloxane vinyl terminated at various viscosity and a range of platinum-mono, di, tri and/or tetramethyldisiloxane complex
Source text: The composition for the example may be as follow: polymer part: polydimethylsiloxane, vinyldimethyl terminated, any viscosity; and/or polydimethylsiloxane, vinylmonomethyl terminated, any viscosity. The cross-linker part: polydimethylsiloxane, any viscosity; and or polymonomethylsiloxane, any viscosity. Platinum catalyst part and/or cross-linker part: platinum; and/or platinum-divinyltetramethyldisiloxane complex in xylene, 2-3% Pt; and/or platinum-divinyltetramethyldisiloxane complex in vinyl terminated polydimethylsiloxane, 2-3% Pt; and/or platinum-divinyltetramethyldisiloxane complex in vinyl terminated polydimethylsiloxane, ˜1% Pt; platinum-Cyclovinylmethylsiloxane complex, 2-3% Pt in cyclic vinyl methyl siloxane.
These components may be combined in different ratios to make the polymer. […] The amount of vinyl siloxane cross-linker may determine the rate of the drug release and diffusivity of the polymer to the drug.

release profile: acceptable
SMILES: CC(=O)O[C@H]1C(=O)[C@@]2(C)[C@H]([C@H](OC(=O)c3ccccc3)[C@]3(O)C[C@H](OC(=O)[C@H](O)[C@@H](NC(=O)c4ccccc4)c4ccccc4)C(C)=C1C3(C)C)[C@]1(OC(C)=O)CO[C@@H]1C[C@@H]2O [paclitaxel]

From patent US8002740B2, “Devices for maintaining patency of surgically created channels in tissue” (Broncus Technologies, Inc., priority 2003, dated 2011)
